These results are taken from patent US20110124703A1, “MOLECULES COMPRISING A BIS(HETEROARYL)MALEIMIDE BACKBONE, AND USE THEREOF IN THE INHIBITION OF DDE/DDD ENZYMES” (priority 2008, published 2011).

For experiment [1], the target named is T1, MOS1 transposase (MBP-MOS1) (Drosophila mauritiana, UniProt Q7JQ07).
T1 construct: made in house
The experiment in a line: In vitro transposition test. The experiment is classed as biochemical. As to conditions: 80 μM compound; for Transposition frequencies: mean of at least five experiments; for Inhibition factors: ratio of transposition frequency with DMSO to that with compound. The protocol: The in vitro transposition reactions were carried out using pBC-3T3 both as the donor DNA and as the target, as was carried out previously for transposition tests in bacteria (16). The transposition reaction mixtures contained 10 mM of Tris-HCl (pH 9), 50 mM of NaCl, 0.5 mM of dithiothreitol, 20 mM of MgCl2, 0.5 mM of EDTA, 100 ng of BSA, 80 nM of MBP-MOS1 and 600 ng of supercoiled pBC-3T3 in a volume of 20 μl. Inhibitors (final concentration 80 μM) or DMSO were added to the reaction mixtures before the transposase. The reactions were carried out freely for 30 min at 30° C. then 10 μl of the stop solution (0.4% SDS, 0.4 μg/μl proteinase K) were added and the reaction mixtures were incubated at 37° C. for an additional 30 min, then at 65° C. for 10 min. The products were extracted with phenol-chloroform and precipitated in ethanol with 1 μg of yeast tRNA using conventional techniques. 10% of the reaction mixture was co-transformed with 0.01 ng of pBS-SK(−), used as a positive control for transformation (Stratagene), in 45 μl of electrocompetent Escherichia coli JM109 cells (2 mm cell, 1.5 kV in a MicroPulser™ from BioRad). The bacteria were cultivated at 37° C. for 1 hour in SOC medium. Appropriate dilutions of each reaction were spread on LB-ampicillin gelose (100 μg/ml) to evaluate the transformation efficacy and on LB-tetracyclin gelose (12.5 μg/ml) and LB-chloramphenicol gelose (80 μg/ml) in order to evaluate the frequency of transposition. The frequency of transposition is the number of Tet® colonies divided by the number of Chloram® colonies. The transformation efficacy was monitored from the number of Amp® colonies. The effect of the various compounds was expressed by calculating an inhibition factor (IF) such that IF=the frequency of transposition of the control (in DMSO) divided by the frequency of transposition obtained with the compound.
The transposition test was carried out using a purified MOS1 protein fused with the MBP and the pBC-3T3 plasmid carrying a pseudo-Mos1 transposon. In this test, pBC-3T3 was used as the pseudo-Mos1 donor, or as the target for integration of the transposon (16). […] The concentration of drugs used for the initial screening was 80 μM.

In another experiment the target is T2, MOS1-ITR complexes (Drosophila mauritiana, UniProt Q7JQ07).
T2 construct: made in house
In words: Electrophoretic mobility shift test (EMSA), assembly of MOS1-ITR complexes. The experiment is classed as binding. The arrangement: key to Assembly of complexes: +: complexes observed; −: absence of complexes; +/: traces of SEC1. The conditions noted are these: for IC50: MOS1-ITR bond. How it is done:
The ITR30 was prepared and labeled as described above (8) with certain minor modifications: after labelling, the DNA was purified further on a native polyacrylamide gel. The binding reactions were carried out in 50 mM of NaCl, 0.5 mM of DTT, 10 mM of Tris (pH 9), 5% of glycerol and 100 ng of BSA. Each 20 μl reaction contained 0.2 pmol of ITR30 labelled with ^32P, […] of purified MBP-MOS1, 5 mM of EDTA, and 1 μl of the test compound (final concentration 400 μM) or DMSO. The mixtures were incubated at 30° C. for two hours. The complexes were separated using discontinuous native polyacrylamide gels with 4% to 6% of TBE 0.25× (acrylamide/bisacrylamide 30:0.93) containing 5% of glycerol. The gels were subjected to 200 V for 3 hours then autoradiographed.
The capacity of the ten molecules to inhibit the appearance of complexes formed in vitro between MOS1 and ITR 3′ (8) was tested using the gel mobility shift technique (EMSA). MOS1-ITR complexes were formed with a radiolabelled ITR 3′ (ITR30) in the presence of a 400 μM concentration of molecule. This concentration was at least 2.5 times higher than the highest IC50 value measured for the ten compounds.

Experiment [2] has as its target T1, MOS1 transposase (MBP-MOS1). In words: In vitro excision test. The experiment is classed as biochemical. The protocol:
These tests were carried out under the same conditions as for the in vitro transposition tests, with the exception of the fact that the incubation was carried out at 37° C. instead of 30° C. In order to determine the IC50, a range of concentrations of the compound from 1000 to 0.8 μM was used as indicated in the text. After incubation, the reaction was interrupted by adding 2 μl of 10× loading buffer and the products were loaded directly onto a 0.8% TAE 1×-agarose gel containing ethidium bromide. The quantity of backbone liberated was evaluated using the GeneSnap system (SynGene). The percentage inhibition of excision was plotted as a function of the concentration of the compound. The experimental data were adjusted on a sigmoid dose-response curve using Prism software. Each experiment was repeated at least two times.
For a better characterization of the inhibiting activity of these ten compounds and their action mechanisms on the transposition of Mos1, the capacity of the chemical compounds to inhibit excision of the transposon was tested in vitro, using the pBC-3T3 transposon as a donor plasmid. MOS1 triggers excision of the transposon from a donor plasmid, generating two linear DNA fragments, the transposon (1.2 kb) and the plasmid backbone (3.4 kb). After excision, the transposon can be re-inserted in a target. The excision activity of the drug was measured by quantifying the plasmid backbone as it is a final product in the reaction. In the absence of a drug, the transposase released the transposon from the donor plasmid.
In order to determine the concentration of drug necessary to inhibit 50% of the reaction (IC50), the inhibition percentages measured from two independent experiments were plotted as a function of the concentration of drug (FIG. 3b). Similar experiments were carried out with the nine other chemical compounds and the corresponding IC50 values are shown in Table III.

A further experiment concerns the target T3, HIV-1 integrase (Human immunodeficiency virus type 1 group M subtype B, UniProt P04585).
T3 construct: made in house
In words: 3′ maturation and HIV-1 strand transfer tests. The experiment is classed as biochemical. How it is done: HIV-1 integrase was purified as described in (32). 200 nM of HIV-1 integrase was incubated in the presence of 6.25 nM of radiolabelled oligonucleotide duplex imitating the end of the LTR U5 in a buffer containing 20 mM of HEPES (pH 7.5), 10 mM of NaCl, 4 mM of DTT, 7.5 mM of MgCl2, 10% of DMSO and various concentrations of drugs. The reaction was carried out for 2 hours at 37° C. and the products were separated on an 18% acrylamide urea gel. The gel was scanned using a phosphorimager and analyzed using Image Quant (Molecular Dynamics) software. Each experiment was carried out in duplicate.
To verify whether the novel group of inhibitors (compounds 1 to 4) is also susceptible of blocking HIV-1 integrase, the activity of compound 4 was tested against the 3′ maturation and strand transfer activities of HIV-1 integrase. The percentage inhibition measured in the two independent experiments were traced as a function of the concentration of compound 4 (FIG. 10). […] It was also an excellent inhibitor of HIV-1 integrase. […] In consequence, MOS1 can be considered as a novel substitute for the identification of inhibitors of HIV-1 integrase.

Like-named read-outs stand apart in the source and are kept apart here.

T2 sequence (Q7JQ07 whole entry, one chain of several): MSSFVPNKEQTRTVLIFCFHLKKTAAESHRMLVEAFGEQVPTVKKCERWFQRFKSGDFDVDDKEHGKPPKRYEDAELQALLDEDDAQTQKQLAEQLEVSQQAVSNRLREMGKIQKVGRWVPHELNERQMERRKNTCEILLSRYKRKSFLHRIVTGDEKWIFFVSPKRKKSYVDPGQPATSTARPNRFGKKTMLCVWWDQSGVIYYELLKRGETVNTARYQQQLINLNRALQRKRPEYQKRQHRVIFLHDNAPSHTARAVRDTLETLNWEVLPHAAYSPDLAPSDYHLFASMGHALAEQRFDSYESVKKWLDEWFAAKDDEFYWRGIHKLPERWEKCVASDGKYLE
T1 sequence (Q7JQ07 whole entry): as the sequence (Q7JQ07 whole entry, one chain of several) above

On to `O=C(O)C(Cc1ccccc1)N1C(=O)C(=CC=Cc2ccccc2)SC1=S` (stereo not drawn) [Compound 10, reference compound], for which, in experiment [1], the Transposition frequencies is given as 2.76 × 10^−6 and the Inhibition factors was 145. In addition, at MOS1-ITR complexes (400 μM compound), the Assembly of complexes result is “−” and the “MOS1-ITR complexes in the presence of compound” value (shortened to “MOS1-ITR complexes … of compound”) is reported as “completely destabilized”. Further, the IC50 in experiment [2] was 35 µM.

On to `O=C/C=C/c1ccc(C2=C(c3ccc(/C=C/C=O)o3)C(=O)N(Cc3ccccc3)C2=O)o1` [Compound 4], for which, in experiment [1], the Transposition frequencies was 5.37 × 10^−6 and the Inhibition factors is 75. Besides, on MOS1-ITR complexes (400 μM compound), the Assembly of complexes result is “−” and the “MOS1-ITR complexes … of compound” value is on record as “completely destabilized”. The IC50 on MOS1-ITR complexes is 12 µM. In addition, the “times more active against strand transfer activity than 3′ maturation” value at HIV-1 integrase stood at 10 times. At HIV-1 integrase (read-out: IC50 3′ maturation), the IC50 was determined as 70 µM. Moreover, at HIV-1 integrase (read-out: IC50 strand transfer activity), the IC50 turned out to be 7 µM.

For the compound `COc1cccc(OCCOc2cccc(CC3SC(=S)NC3=O)c2)c1` (stereo not drawn) [Compound 8, reference compound], in experiment [1], the Transposition frequencies is 5.04 × 10^−6 and the Inhibition factors is listed as 79. In addition, on MOS1-ITR complexes (400 μM compound), the Assembly of complexes result is given as “−” and the “MOS1-ITR complexes … of compound” value was “completely destabilized”.

`O=C(Nc1ccccc1C(=O)O)c1cccc(NC(=O)C(c2ccccc2)c2ccccc2)c1` [Compound 9, reference compound]: in experiment [1], the Transposition frequencies is listed as 1.64 × 10^−5 and the Inhibition factors turned out to be 25. Moreover, the “inhibition of MOS1-ITR complexes” value on MOS1-ITR complexes (400 μM compound) is 90%. This compound also yielded an IC50 in experiment [2] of 150 µM. In addition, the “excision of the transposon” value in experiment [2] (highest concentration of the drug (1 mM)) was “completely suppressed”.

Turning to `COc1ccc(C(c2c(O)c3ccccc3oc2=O)c2c(O)c3ccccc3oc2=O)cc1CSc1ccccn1` [Compound 7, reference compound], in experiment [1], the Transposition frequencies is 4.85 × 10^−6 and the Inhibition factors was determined as 82.5. Besides, at MOS1-ITR complexes (400 μM compound), the Assembly of complexes entry was “−” and the “MOS1-ITR complexes … of compound” value was “completely destabilized”.

Take `CCOC(=O)C(Cc1ccccc1)N1C(=O)C(c2ccc(C(=O)O)o2)=C(c2ccc(C(=O)O)o2)C1=O` (stereo not drawn) [Compound 3]: in experiment [1], the Transposition frequencies was 4.01 × 10^−6 and the Inhibition factors stood at 100. Also, on MOS1-ITR complexes (400 μM compound), the Assembly of complexes entry is “−” and the “MOS1-ITR complexes … of compound” value was “completely destabilized”. For the same compound, on MOS1-ITR complexes, the IC50 turned out to be 30 µM.

Take `O=C(O)c1ccc(C2=C(c3ccc(C(=O)O)o3)C(=O)N(c3ccc(O)cc3)C2=O)o1` [Compound 2]: in experiment [1], the Transposition frequencies is listed as 1.2 × 10^−6 and the Inhibition factors amounted to 33. On MOS1-ITR complexes (400 μM compound), the Assembly of complexes entry is “−” and the “MOS1-ITR complexes … of compound” value was “completely destabilized”. For the same compound, at MOS1-ITR complexes, the IC50 is 15 µM.
